Results taken from PMC9963438, “Emerging Effects of Resveratrol Derivatives in Cells Involved in Oral Wound Healing: A Preliminary Study” (International Journal of Molecular Sciences, 2023).

Legend:
[1] = system: human gingival fibroblasts (HGFs); assay: MTT cytocompatibility screening on HGFs, 24 h; type: cell-based; conditions: for HGFs metabolic activity / cell viability (MTT): 10 µM, vs control (DMSO) and RSV; for HGFs cell viability (MTT): vs control and RSV
HGFs = assay: MTT viability/proliferation on HGFs; type: cell-based, human; conditions: vs CTRL and RSV 10 µM
Procedure: For the initial screening, HGFs were seeded at a density of 8000 cells/well into a 96-well culture plate and cultured for 24 h. […] The DMSO final concentration was established at 0.1% in all tested samples.
To measure HUVECs, HGFs, and HOBs metabolic activity as an indicator of cell viability and proliferation, an MTT assay (Sigma Aldrich, Milan, Italy) was performed. In brief, 8000 cells/well (HUVECs, HGFs and HOBs) were seeded in 96-well plates and after 24 h cells were treated with increasing concentrations of 1d and 1h for 48 h and 72 h. Then, the medium was replaced by a fresh one supplemented with […] MTT and probed for 4 h at 37 °C. The medium containing MTT was discarded and replaced by an equal volume of DMSO to dissolve formazan crystals. The absorbance of the solution was read at a 540 nm wavelength by a microplate reader (Multiskan GO, Thermo Scientific, MA, USA). Values obtained without cells were considered as background. Viability and proliferation were normalized to control cells treated with DMSO 0.1%.

[2] = Kinetic of chemical hydrolysis, pH 7.0; type: physicochemical; conditions: pH 7.0, 37 °C; for Chemical hydrolysis Kobs: mean of three experiments (SD); for half-life at 18.2 µM: phosphate buffer, read-out: Chemical hydrolysis t ½ (converted)
Procedure: A phosphate buffer (PBS, pH 7.0) was used to estimate the chemical stability. The reaction was started by adding 1 mL of a 2 × 10^−4 M stock solution in ACN to a thermostatic (37 ± 0.5 °C) aqueous buffer solution (8 mL) and 2 mL of acetonitrile, containing 0.1% (v/v) Cremophor ELP. At established time points, samples (200 µL) were withdrawn and analyzed by HPLC. Pseudo-first-order rate constants (kobs) for the hydrolysis of the compound were calculated from the slopes of the linear plots of log (% residual compound) against time. The results are expressed as mean values of three different experiments.

OCN mRNA in HOBs = assay: RT-qPCR of OCN in HOBs; type: cell-based, human
Procedure: (§1) Total RNA was isolated using Trifast reagent (EuroClone) according to the manufacturer instructions from 3 × 10^5 cells/well treated with increasing concentrations of 1d and 1h for 48 h and 72 h. Complementary DNA (cDNA) was obtained using GoTaq® 2 Step RT-qPCR Kit (Promega, Madison, WI, USA) in accordance with the manufacturer’s instructions. RT-qPCR was carried out using SYBR Green (Promega) on the Quant Studio 7 Pro Real-Time PCR System (ThermoFisher, Waltham, MA, USA). The results were normalized to glyceraldehyde 3-phoshate dehydrogenase (GAPDH) for HUVECs and HGFs and to β-actin (βACT) for HOBs using the 2^−ΔΔCt method.

ALP mRNA in HOBs = assay: RT-qPCR of ALP in HOBs; type: cell-based, human; conditions: all concentrations (5, 10, 20 µM), compared to CTRL; not significant
Procedure: as §1

[3] = Kinetics in human plasma (enzymatic hydrolysis); type: in vitro ADME; conditions: 37 °C; for Enzymatic hydrolysis t ½ / Enzymatic hydrolysis Kobs: Human plasma; for Enzymatic hydrolysis Kobs: mean of three experiments (SD); for half-life at 40 µg/mL: human, human plasma (80%) diluted with phosphate buffer, pH 7.4, Human plasma, read-out: Enzymatic hydrolysis t ½
Procedure: Human plasma was obtained from 3H Biomedical (Uppsala, Sweden, Europe). Plasma fractions (2 mL) were diluted with […] of a 0.02 M phosphate buffer (PBS, pH 7.4) to obtain a final volume of 2.5 mL (80% of plasma). A total of 100 µL of a stock solution, prepared to dissolve 1 mg of each compound in 1 mL of ACN, was added. Studies were performed at 37 ± 0.5 °C using a shaking bath. Aliquots (100 µL) were taken at established time points and treated with 400 µL of 0.01 M HCl in methanol. After centrifugation for 15 min at 6000× g, the supernatant was filtered and analyzed by HPLC [51].

HOBs = assay: LDH release assay on HOBs; type: cell-based, human; conditions: 24 h
Procedure: Lactate Dehydrogenase (LDH) activity in HUVECs, HGFs, and HOBs was measured with a cytotoxicity detection kit LDH (Roche, Basilea, Swiss). Firstly, 5000 cells/well (HUVECs, HGFs and HOBs) were seeded in 96-well plates and treated with 1d and 1h (5, 10, 20 µM). After 24 h, the assay was performed according to manufacturer instructions. LDH release was calculated as a percentage with respect to the control (CTRL).

HUVECs = assay: Toluidine blue staining, morphology and confluence of HUVECs; type: cell-based, human; conditions: 5 µM; for HUVECs confluence: 48 h, compared to CTRL and RSV; for HUVECs growth / confluence: 72 h, compared to controls
Procedure: The influence of 1d and 1h was evaluated on cells density and morphology by toluidine-blue staining. A total of 2 × 10^4 cells/well were cultured in 24-well plates and were incubated at 37 °C and 5% CO2 with tested compounds at 5 µM. After 48 and 72 h, adherent cells were fixed with 70% cold ethanol and stained with 1% toluidine blue and 1% borax (Sigma Aldrich, St. Louis, MO, USA). Cells were then observed by an inverted microscope connected with a camera at 40×, 100×, and 200× magnifications (Leica, Wild Heer-brugg, Wetzlar, Germany).

Water solubility = type: physicochemical; conditions: deionized water, 25 °C
Procedure: An excess of compounds 1d and 1h was placed in 1 mL of deionized water and the suspension was shaken at 25 °C for 15 min to ensure the solubility equilibrium. Next, the supernatant was filtered (Millipore 0.45 µm, Burlington, Massachusetts, USA) and analyzed by HPLC [49].

[4] = 10 and 20 µM, differences not significant

Chemical hydrolysis Kobs [2] | half-life at 18.2 µM [2] [h] | Enzymatic hydrolysis t ½ [3] [h] | Enzymatic hydrolysis Kobs [3] | half-life at 40 µg/mL [3] [h] | LDH release (HOBs; 5 µM) | LDH release (HOBs; [4]) | Water solubility (Water solubility) | Structure (SMILES) | HGFs metabolic activity / cell viability (MTT) [1] | HGFs cell viability (MTT) ([1]; 20 µM) | HGFs cell viability (MTT) ([1]; 50 µM) | HGFs proliferation rate (MTT) (HGFs; 5 µM, 48 h) | HGFs proliferation rate (MTT) (HGFs; 5 µM, 72 h) | OCN mRNA expression (OCN mRNA in HOBs; 5 µM, 48 h) | OCN mRNA expression (OCN mRNA in HOBs; 10 and 20 µM, 48 h) | ALP mRNA level (ALP mRNA in HOBs) | HUVECs confluence (HUVECs) | HUVECs growth / confluence (HUVECs) | other results
0.030 (±0.001) h^−1 | 23.4 | 51.7 | 0.013 (±0.003) h^−1 | > 49 | lowest LDH values | slightly increased the LDH | insoluble in water | CCS(=O)(=O)Nc1ccc(/C=C/c2ccccc2)cc1 [1h, N-{4-[(E)-2-Phenylvinyl]phenyl}ethanesulfonamide] | statistically augmented the cell viability | slight increase in HGF viability | no statistically significant differences | cell proliferation was significantly higher | cell proliferation was significantly higher | significantly stimulated OCN levels with respect to the CTRL | slightly promoted | slight increase in the ALP mRNA level | reached confluence approximately earlier | growth was more consistent | OCN mRNA expression (OCN mRNA in HOBs; 72 h, in respect to CTRL, levels comparable to RSV): slightly increased OCN expression
0.050 (±0.004) h^−1 | 13.9 | 49.5 | 0.014 (±0.005) h^−1 | > 49 | lowest LDH values | slightly increased the LDH | insoluble in water | Cc1ccc(S(=O)(=O)Nc2ccc(/C=C/c3ccccc3)cc2)cc1 [1d, 4-Methyl-N-{4-[(E)-2-phenylvinyl]phenyl}benzenesulfonamide] | statistically augmented the cell viability | statistically significant increase in HGF viability | positively and statistically increases cell viability | significant increase in proliferation rate | significantly promoted cell proliferation | increased after 48 h exposure to all 1d concentrations with statistical significance just for 5 µM | increased | slight increase in the ALP mRNA level | reached confluence approximately earlier | growth was more consistent | HGFs proliferation rate (MTT) (HGFs; 10 µM, 48 h): slight increment of cell growth compared to RSV, but not in respect to the CTRL; HGFs proliferation rate (MTT) (HGFs; 20 µM, 72 h): proliferative rate was lower; OCN mRNA expression (OCN mRNA in HOBs; 5 µM, 72 h, compared to CTRL): highest significant peak; OCN mRNA expression (OCN mRNA in HOBs; 10, 20 µM, 72 h): slightly promoted the enhancement of OCN expression
